Reference: patent US20250025488A1, “NUCLEIC ACIDS FOR INHIBITING EXPRESSION OF TMPRSS6 AND IRON CHELATORS” (SILENCE THERAPEUTICS GMBH, priority 2018, published 2025)

Test system: HFE−/− mice
Experiment: Liver iron concentrations, TMPRSS6 siRNA with or without Deferiprone, HFE−/− mice
Type: in vivo, mouse
Conditions: 3 mg/kg siRNA conjugate s.c. Day 1 or Day 1 and 22, Deferiprone 0.5 mg/ml in drinking water, Day 43
Procedure: Three months old C57BL6/J congenic female HFE knock-out mice (−/−) and three months old female C57BL6/J wild type mice (+/+) were used in this study (Herrmann et al., Mol. Med, 2004. 82 (1): p1-3). HFE−/− mice (n=8) were treated on Day 1 (1×) or on Day 1 and on Day 22 (2×) subcutaneously with either PBS (PBS) or 3 mg/kg TMPRSS6 siRNA conjugate (TMP) or 3 mg/kg non-targeting siRNA conjugate (Luc). In addition, cohort 7 to 10 received Deferiprone supplied in drinking water at a concentration of 0.5 mg/ml. Cohorts 1 and 2 were terminated on Day 1 (Predose) all other cohorts on Day 43 (6 weeks after start of the treatment) to collect serum and tissue samples for analyses. Treatment with TMPRSS6 siRNAs enhances the reduction of tissue iron levels by iron chelator. 3 months old HFE−/− (rodent model for hereditary hemochromatosis and iron overload) or wild type mice were used for this study and treated as described in Example 46. Liver tissue samples were collected to assess liver iron concentrations before start of the treatment (predose) and at the end of the study at Day 43 (6 weeks after start of treatments). Liver tissue samples were dried and iron concentrations from dry weights were determined by acid extraction method. At the start of the study liver iron levels were already elevated in HFE−/− compared to wild type control mice (Predose). […]

Structure (SMILES): Cc1c(O)c(=O)ccn1C [Deferiprone]
- Liver iron content: little to no effect on the liver iron content
